Several values for one entry are separate records, joined by “and”; a condition that tells them apart may be missing. Identical values can stand only once. Like-named read-outs stand apart in the source and are kept apart here.
System: M. tuberculosis H37Rv (ATCC 27294)
Assay: In vitro anti-tuberculosis screening, BACTEC 460 radiometric system, percent inhibition of growth
Assay type: cell-based, Mycobacterium tuberculosis
Conditions: for inhibition at 12.5 µg/mL: Mycobacterium tuberculosis
[1] = Mtb H37Rv, 12.5 μg/mL, BACTEC 12B medium
[2] = Mtb H37Rv, drug concentration 12.5 μg/mL
[3] = Mtb H37Rv, drug concentration 12.5 μg/mL, read-out: inhibition of the growth of Mtb

Molecule | Activity % inhibition at 12.5 μg/mL (chalcones) [1] | inhibition of the growth of Mtb [2] | further results
3′′′-Nitro-C3-O-C4′′′′--Biflavone [Compound 154] | – | – | Activity % Inhibition at 12.5 μg/mL (biflavonoids) [1]: 61%
6-2′′′-Biapigenin [Compound 158] | – | – | Activity % Inhibition at 12.5 μg/mL (biflavonoids) [1]: 1%
COc1ccc(C(=O)/C=C/c2ccccc2)c(O)c1 [Compound 1] | 78% | 78% | –
COc1ccc(/C=C/C(=O)c2c(O)cccc2OC)cc1 [Compound 2] | 75% | – | –
COc1ccc(/C=C/C(=O)c2ccc([N+](=O)[O-])cc2)cc1 [Compound 4] | 62% | – | –
O=C(/C=C/c1ccccc1)c1ccccc1O [Compound 5, 2′-hydroxychalcone] | – | – | inhibition at 12.5 µg/mL (read-out: Activity % inhibition at 12.5 μg/mL (chalcones), Mtb H37Rv, 12.5 μg/mL, BACTEC 12B medium): 61%; inhibition at 12.5 µg/mL (read-out: inhibition of the growth of Mtb, Mtb H37Rv, drug concentration 12.5 μg/mL): 61%
COc1ccc(/C=C/C(=O)c2c(O)cc(OC)cc2OC)cc1 [Compound 7] | 40% | 40% | –
COc1ccccc1C=CC(=O)c1ccccc1O [Compound 8] | 39% | – | –
COc1ccc(/C=C/C(=O)c2ccc(OC)cc2O)cc1 [Compound 9] | 32% | – | –
O=C(/C=C/c1cccc(O)c1)c1ccccc1O [Compound 10] | 18% | – | –
Nc1cccc(/C=C/C(=O)c2ccccc2O)c1 [Compound 11] | 11% | – | –
Nc1ccc(O)c(C(=O)/C=C/c2ccccc2)c1 [Compound 12] | 6% | 6% | –
Nc1ccc(C(=O)/C=C/c2ccccc2)cc1 [Compound 13] | 5% | – | –
CCOc1cc(O)c(C(=O)C=Cc2ccccc2)c(OCC)c1 [Compound 14] | 0% | – | –
COc1cc(O)c(C(=O)/C=C/c2cc(OC)c(OC)c(OC)c2)c(O)c1 [Compound 15] | 0% | – | –
COc1ccc(/C=C/C(=O)c2cc(C(=O)O)ccc2O)cc1 [Compound 16] | 0% | – | –
CC(=O)Nc1cccc(/C=C/C(=O)c2ccccc2O)c1 [Compound 17] | 0% | – | –
COc1ccc(/C=C/C(=O)c2ccccc2F)cc1 [Compound 20] | 82% | – | –
COc1ccc(C=CC(=O)c2ccc(F)cc2O)cc1 [Compound 22] | 63% | – | –
COc1ccc(/C=C/C(=O)c2cccc(F)c2O)cc1 [Compound 23] | 45% | – | –
O=C(C=Cc1ccccc1)c1ccc(Cl)cc1O [Compound 25] | 89% | 89% | –
O=C(/C=C/c1ccccc1)c1cc(Cl)ccc1O [Compound 26] | 67% | 67% | –
O=C(/C=C/c1ccc(Cl)cc1)c1ccccc1O [Compound 27] | 67% | 67% | –
COc1ccc(C=CC(=O)c2ccc(Cl)cc2O)cc1 [Compound 28] | 57% | 57% | –
COc1ccc(/C=C/C(=O)c2cc(Cl)ccc2O)cc1 [Compound 29] | 20% | 20% | –
O=C(/C=C/c1ccccc1Br)c1ccccc1O [Compound 31] | 83% | 83% | –
O=C(/C=C/c1ccccc1)c1cccc(Br)c1O [Compound 32] | 79% | 79% | –
O=C(C=Cc1ccc(Br)cc1)c1ccccc1O [Compound 33] | 70% | 70% | –

Molecule | Activity % inhibition at 12.5 μg/mL (chalcones) [1] | inhibition of the growth of Mtb [2] | further results
COc1ccc(C=CC(=O)c2ccc(Br)cc2O)cc1 [Compound 36] | 25% | 25% | –
COc1ccc(/C=C/C(=O)c2cc(Br)ccc2O)cc1 [Compound 37] | 23% | 23% | –
Nc1ccccc1/C=C/C(=O)c1ccc(Br)cc1O [Compound 38] | 12% | 8% and 12% | –
Nc1cccc(C(=O)/C=C/c2ccccc2I)c1 [Compound 41] | 88% | 88% | –
O=C(/C=C/c1ccccc1)c1cc(I)ccc1O [Compound 42] | 51% | 51% and 52% | –
COc1ccc(C(=O)/C=C/c2cccc(I)c2)c(O)c1 [Compound 43] | 47% | 47% | –
O=C(/C=C/c1ccccc1I)c1ccccc1O [Compound 44, 2′-hydroxy-2-iodochalcone] | – | – | inhibition at 12.5 µg/mL (Mtb H37Rv, 12.5 μg/mL, BACTEC 12B medium, read-out: Activity % inhibition at 12.5 μg/mL (chalcones)): 41%; inhibition at 12.5 µg/mL [3]: 41%
O=C(/C=C/c1ccccc1)c1ccc(I)cc1O [Compound 45] | 21% | 21% | –
O=C(/C=C/c1ccc(I)cc1)c1ccccc1O [Compound 46] | 21% | 21% | –
COc1ccc(/C=C/C(=O)c2cc(I)ccc2O)cc1 [Compound 48] | 0% | 0% | –
COc1ccc(/C=C/C(=O)c2cccc(I)c2O)cc1 [Compound 49] | 0% | 0% | –
O=C(O)c1ccc(O)c(C(=O)C=Cc2cccc(I)c2)c1 [Compound 50] | 0% | 0% | –
O=C(/C=C/c1cccc(I)c1)c1cccc(Br)c1O [Compound 51, 3′-bromo-2′-hydroxy-3-iodochalcone] | – | – | inhibition at 12.5 µg/mL [3]: 0%
O=C(C=Cc1ccccn1)c1ccccn1 [Compound 60] | – | – | Activity % inhibition at 12.5 μg/mL (chalcone-like compounds) [1]: 42%
O=C(/C=C/c1ccccc1)c1cccc2ccccc12 [Compound 61] | – | – | Activity % inhibition at 12.5 μg/mL (chalcone-like compounds) [1]: 37%
CN(C)c1ccc(/C=C/C(=O)c2ccccn2)cc1 [Compound 62] | – | – | Activity % inhibition at 12.5 μg/mL (chalcone-like compounds) [1]: 16%
O=C(/C=C/c1ccco1)c1ccc(Br)cc1O [Compound 63] | – | – | Activity % inhibition at 12.5 μg/mL (chalcone-like compounds) [1]: 17%
O=C(/C=C/c1cc2ccccc2[nH]1)c1ccncc1 [Compound 64] | – | – | Activity % inhibition at 12.5 μg/mL (chalcone-like compounds) [1]: 12%
COc1ccc(C(=O)/C=C/c2ccco2)c(O)c1 [Compound 65] | – | – | Activity % inhibition at 12.5 μg/mL (chalcone-like compounds) [1]: 3%
Nc1ccc(C(=O)/C=C/c2cccnc2N)cc1 [Compound 66] | – | – | Activity % inhibition at 12.5 μg/mL (chalcone-like compounds) [1]: 7%
CN(C)c1ccc(/C=C/C(=O)c2ccncc2)cc1 [Compound 68] | – | – | Activity % inhibition at 12.5 μg/mL (chalcone-like compounds) [1]: 1%
COc1ccc(O)c(C(=O)/C=C/c2ccco2)c1 [Compound 69] | – | – | Activity % inhibition at 12.5 μg/mL (chalcone-like compounds) [1]: 0%
COc1ccc(C(=O)/C=C/c2ccncc2)cc1 [Compound 70] | – | – | Activity % inhibition at 12.5 μg/mL (chalcone-like compounds) [1]: 0%
COc1ccc(C(=O)/C=C/c2cccnc2)cc1 [Compound 71] | – | – | Activity % inhibition at 12.5 μg/mL (chalcone-like compounds) [1]: 0%
Nc1ncccc1C=CC(=O)c1cc(Cl)ccc1O [Compound 72] | – | – | Activity % inhibition at 12.5 μg/mL (chalcone-like compounds) [1]: 0%
Nc1ccc(C(=O)C=Cc2cccnc2N)cc1 [Compound 73] | – | – | Activity % inhibition at 12.5 μg/mL (chalcone-like compounds) [1]: 0%
Nc1ncccc1/C=C/C(=O)c1cc2ccccc2cc1O [Compound 74] | – | – | Activity % inhibition at 12.5 μg/mL (chalcone-like compounds) [1]: 0%

From patent US6677350B1, “Beta-fluoroethyl thiourea compounds and use” (priority 1999, dated 2004)
